# Data reported in US5739385A, “Process for preparing optically active carboxylic acids” (Union Carbide Chemicals & Plastics Technology Corporation, priority 1995, dated 1998).
# How the values were obtained:
# [1] = Naproxen aldehyde solubility in acetone (visual cloud point / clear point); type: physicochemical
# Description: Solubility data for solids in acetone solvent were obtained by visually obtaining a "cloud" point for a solution of known composition by slowly cooling the solution. After obtaining a "cloud" point the solution was slowly heated until a "dear" point was observed. The "clear" point represents the saturation temperature of the solution and the "cloud" point the temperature at which massive spontaneous nucleation occurs.
# Naproxen aldehydes [i.e., R- and S-2-(6-methoxy-2-naphthyl)propionaldehyde]are very soluble in acetone.
# [2] = background, in words; cited from earlier work
Structure (SMILES),solubility in acetone ([1]; in words),temperature dependence of solubility ([1]; in words),"Cloud Point ([1]; solids 22.0 wt %, solids/liquid ratio 0.28, massive spontaneous nucleation temperature) [°C]","Clear Point ([1]; solids 22.0 wt %, solids/liquid ratio 0.28, saturation temperature) [°C]","Cloud Point ([1]; solids 29.0 wt %, solids/liquid ratio 0.41, massive spontaneous nucleation temperature) [°C]","Clear Point ([1]; solids 29.0 wt %, solids/liquid ratio 0.41, saturation temperature) [°C]","Cloud Point ([1]; solids 30.0 wt %, solids/liquid ratio 0.43, massive spontaneous nucleation temperature) [°C]","Clear Point ([1]; solids 30.0 wt %, solids/liquid ratio 0.43, saturation temperature) [°C]","Cloud Point ([1]; solids 35.3 wt %, solids/liquid ratio 0.55, massive spontaneous nucleation temperature) [°C]","Clear Point ([1]; solids 35.3 wt %, solids/liquid ratio 0.55, saturation temperature) [°C]","Cloud Point ([1]; solids 47.0 wt %, solids/liquid ratio 0.89, massive spontaneous nucleation temperature) [°C]","Clear Point ([1]; solids 47.0 wt %, solids/liquid ratio 0.89, saturation temperature) [°C]",anti-arthritic activity [2]
"COc1ccc2cc(C(C)C=O)ccc2c1 (racemic) [Naproxen Aldehyde, R- and S-2-(6-methoxy-2-naphthyl)propionaldehyde]",very soluble,very sensitive to temperature,-15,1,-17,6,-6,11,-9,15,5,25,
"COc1ccc2cc([C@H](C)C(=O)O)ccc2c1 [S enantiomer, S-2-(6-methoxy-2-naphthyl)propionic acid]",,,,,,,,,,,,,potent anti-arthritic agent
